Normal melting temperature data for 2 compounds are collected here from the NIST ThermoML archive (doi:10.1016/j.tca.2017.09.024).

Numbers after ± are expanded uncertainties.

The conditions of the data set: Crystal; DTA.

With `c1ccccc1` [benzene], the Normal melting temperature worked out at 5.6 ± 2 °C.

Consider `Fc1ccccc1` [fluorobenzene], for which the Normal melting temperature is -41.9 ± 2 °C.
